From US20240238292A1, “TREATMENT OF INFECTIONS IN AND AROUND THE EYE” (UNIVERSITY OF MIAMI, priority 2021, published 2024) come the findings set out here.

The test system of test [1] is Demodex. Briefly: Ex vivo treatment of Demodex on epilated lashes, kill time. Particulars: lashes immersed in 1-2 drops, time to cessation of all movement for minimum 60 seconds, examined every four hours. How it is done:
Epilated lashes from an individual with confirmed Demodex infection were mounted onto six slides and covered with a coverslip. The lashes were then immersed in 1-2 drops of treatment solution (50 mg/mL 5-FU, 5 mg/mL 5-FU, or balanced salt solution as a control (2 slides each)). The slides were examined under a microscope (at magnifications ranging from 20-40×) every four hours. The kill time was defined as the elapsed time between the addition of test solution and all cessation of movement of the body, legs, mouth and pedipalps for a minimum of 60 seconds. The kill time for Demodex-infested lashes immersed in 5 mg/mL of 5-FU, 50 mg/mL of 5-FU, and control were 32 hours, 44 hours, and 72 hours, respectively.

The test system of test [2] is Demodex. Briefly: Clinical treatment of Demodex blepharitis with topical 5-FU 1%. Format: in vivo, human. As for the experimental part: The diagnosis of ocular demodicosis was based on clinical examination and confirmed by lash sampling and identification of microscopic mites. Lashes with cylindrical dandruff (CD), (scales that form clear cuffs collaring the lash root) were specifically selected for epilation. External slit lamp photos of both eyes of each individual were taken prior to and after initiation of 5-FU treatment. […] Patients were treated with 5-FU in a cyclical fashion (one week of topical 5-FU 1% application 4 times per day in the affected eye(s) followed by a 3-week holiday comprised one cycle).

In test [3] the test system is Demodex. Nature of the test: Clinical treatment of Demodex infestation with topical mitomycin C. The following applies: patient with conjunctival melanoma and heavy Demodex infestation, after 2 cycles. In kind it is in vivo, human.

Turning to `O=c1[nH]cc(F)c(=O)[nH]1` [5-FU, 5-fluorouracil], the figures for the kill time in the test with Demodex [1] (5 mg/mL 5-FU) and with Demodex [1] (50 mg/mL 5-FU) were 32 h and 44 h, respectively. Moreover, the “CDs (cylindrical dandruff) and inflammation” value in the test with Demodex [2] (one individual with bilateral 5-FU treatment, both eyes compared to pre-treatment) was “reduction in CDs and inflammation”. For the same compound, the “collarettes and lid inflammation by clinical examination” value with Demodex [2] (topical 5-FU 1% 4 times per day one week, 3-week holiday per cycle, at least 2 cycles, treated eyes compared to untreated eye) is “reduction in collarettes and lid inflammation”.

`CO[C@@]12[C@H](COC(N)=O)C3=C(C(=O)C(C)=C(N)C3=O)N1C[C@@H]1N[C@@H]12` [mitomycin C]: the lash collarettes entry in the test with Demodex [3] was “dramatic reduction in lash collarettes”.
